The results in this text go back to PubChem BioAssay (NCI).

Among the test systems are MCF7 breast; DU-145 prostate; HS 578T breast; MOLT-4 leukemia; KM12 colon; OVCAR-4 ovarian; HOP-62 NSCLC; UACC-62 melanoma; CAKI-1 renal.
Test in all cases: NCI tumour cell line growth inhibition, 48 h

Several values for one entry are separate records, joined by “and”; a condition that tells them apart may be missing. Equal entries are not always repeated.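 Step 1: Grow cells in 96-well plates. Step 2: Expose to compound for 48 hours at 5 concentrations. Step 3: Interpolate endpoints linearly; if unreached, use highest concentration. GI50 marks 50% less growth. At the TGI there is no net growth.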

`CCOC(=O)C1(C(=O)OCC)COS(=O)OC1`: the TGI with MCF7 breast was 36.6 µM; with DU-145 prostate it was more than 100 µM; in the assay on HS 578T breast it was more than 100 µM; in the assay with MOLT-4 leukemia it was 56.4 µM; in the assay on KM12 colon, more than 100 µM; with OVCAR-4 ovarian, 42.6 µM.
`Cc1cn([C@@H]2C[C@H](CO)[C@@H](O)C2)c(=O)[nH]c1=O`: the TGI with HOP-62 NSCLC, in the assay on UACC-62 melanoma, in the assay on MOLT-4 leukemia, with KM12 colon and with OVCAR-4 ovarian was more than 100 µM each time.
Turning to `Cn1ccnc1C(O)(c1nccn1C)c1nccn1C`, the TGI in the assay on HOP-62 NSCLC, in the assay with CAKI-1 renal, in the assay on KM12 colon and in the assay with OVCAR-4 ovarian was more than 100 µM in each case.
`O=C(CN(c1ccccc1)c1ccccc1)N1c2ccccc2C2C=CC=CC21` (configuration not stated): the TGI was 41.5 µM with HOP-62 NSCLC; 32.2 µM in the assay on CAKI-1 renal; 50.6 µM in the assay on UACC-62 melanoma; more than 22.6 µM in the assay with MOLT-4 leukemia; 96.8 µM with KM12 colon; more than 100 µM with OVCAR-4 ovarian.
With `COc1c(O)c2c3c(c(C)cc(O)c3c1O)C(=O)C(O)(C(C)(C)C(C)=O)C2=O` (configuration not stated), the TGI in the assay on HOP-62 NSCLC, with CAKI-1 renal, with UACC-62 melanoma, in the assay on MOLT-4 leukemia, in the assay with KM12 colon and with OVCAR-4 ovarian was more than 100 µM in each case. Besides, the GI50 in the assay on UACC-62 melanoma is 39.9 µM and > 100 µM.
For the compound `C=C1c2cc3c(cc2CC12Cc1cc4c(cc1C2=O)CCC4)CCC3` (configuration not stated), the TGI with MCF7 breast, in the assay on HOP-62 NSCLC, in the assay on CAKI-1 renal, with DU-145 prostate, in the assay with HS 578T breast and with MOLT-4 leukemia was more than 100 µM throughout. The TGI in the assay on OVCAR-4 ovarian is more than 100 µM.
Consider `COC(=O)/C(=N/O)C(C(=O)C=C(C)C)C(=O)C(=O)Nc1nc2ccc([N+](=O)[O-])cc2s1` (configuration not stated), for which the TGI with HOP-62 NSCLC was more than 100 µM; with CAKI-1 renal, 97 µM; with UACC-62 melanoma it was more than 100 µM; in the assay with MOLT-4 leukemia, 72.9 µM; in the assay on KM12 colon, more than 100 µM; in the assay with OVCAR-4 ovarian, more than 100 µM.
As for `O=C1NCCS(=O)(=O)N[C@@H](CC2=CC=CCC2)C(=O)N2CCCC12` (some centres not stated), the TGI in the assay on HOP-62 NSCLC, in the assay on UACC-62 melanoma, in the assay with MOLT-4 leukemia, in the assay with KM12 colon and in the assay with OVCAR-4 ovarian was more than 100 µM each time.
For the compound `Cc1cccc(C2=C/C(=C(\SS/C(C(=O)c3ccc(OCC(=O)O)c(Cl)c3Cl)=C3\C=C(c4cccc(C)c4)SS3)C(=O)c3ccc(OCC(=O)O)c(Cl)c3Cl)SS2)c1`, the TGI in the assay with HOP-62 NSCLC is more than 100 µM; in the assay on CAKI-1 renal it was 66.3 µM; in the assay on UACC-62 melanoma, 38.5 µM; with MOLT-4 leukemia, 40.2 µM; in the assay with KM12 colon, 52.9 µM; with OVCAR-4 ovarian, more than 70.2 µM.
With `CC1CN=C(N(C(=O)Nc2ccc(F)c(Cl)c2)c2ccccc2)S1` (configuration not stated), the TGI in the assay with MCF7 breast was 25.9 µM; with HOP-62 NSCLC, 61.6 µM; with CAKI-1 renal it was 67 µM; with DU-145 prostate, more than 100 µM; with HS 578T breast it was more than 100 µM; in the assay on MOLT-4 leukemia, 62.2 µM. Further, the TGI is 78.3 µM with KM12 colon and more than 100 µM in the assay on OVCAR-4 ovarian.
For the compound `CSC(=Nc1ccccc1)N(c1ccccc1)c1nc(=[N+](C)C)ss1`, the TGI with HOP-62 NSCLC stood at 27.2 µM; in the assay on CAKI-1 renal it was 11.3 µM; with UACC-62 melanoma, 1.74 µM; in the assay on MOLT-4 leukemia it was 7.54 µM; with KM12 colon, 13.7 µM; in the assay with OVCAR-4 ovarian it was 21.5 µM.
`O=C(NC(COC(=O)C(Cc1ccccc1)NC(=O)c1ccccc1)Cc1ccccc1)c1ccccc1` (configuration not stated): the TGI with MCF7 breast, in the assay on HOP-62 NSCLC, in the assay with UACC-62 melanoma, in the assay on HS 578T breast, in the assay on MOLT-4 leukemia and in the assay on KM12 colon was more than 50 µM each time. Moreover, the TGI in the assay with OVCAR-4 ovarian was more than 50 µM.
With `CCN1CCCC(NCc2c3ccccc3c(CNC3CCCN(CC)C3)c3ccccc23)C1` (configuration not stated), the TGI is 15.2 µM with MCF7 breast; more than 63.4 µM in the assay with HOP-62 NSCLC; 50 µM with CAKI-1 renal; 26.8 µM in the assay with UACC-62 melanoma; 14.8 µM in the assay on MOLT-4 leukemia; 31.9 µM in the assay on KM12 colon. The compound further returned a TGI with OVCAR-4 ovarian of 18 µM.
As for `COc1ccc(-c2oc(/C=N/NC(N)=S)c([N+](=O)[O-])c2-c2ccc(OC)c(OC)c2)cc1OC`, the TGI in the assay on HOP-62 NSCLC was more than 100 µM; in the assay with CAKI-1 renal, more than 100 µM; in the assay on UACC-62 melanoma, 78.5 µM; in the assay with OVCAR-4 ovarian, 61.6 µM.
`NNC1=N/C(=C\c2ccco2)C(Cl)=N1`: the TGI with MCF7 breast is more than 100 µM; in the assay on HOP-62 NSCLC, more than 100 µM; in the assay on CAKI-1 renal, more than 100 µM; in the assay on DU-145 prostate, more than 100 µM; in the assay on HS 578T breast, more than 100 µM; in the assay on MOLT-4 leukemia, 34.9 µM. Besides, the figures for the TGI in the assay with KM12 colon and in the assay on OVCAR-4 ovarian were more than 100 µM and 75.8 µM, respectively.
As to `CC1=NN(C(=O)CC(=O)Nc2ccccc2F)C(=O)C1N=Nc1ccccc1[N+](=O)[O-]` (configuration not stated), the TGI with HOP-62 NSCLC is more than 100 µM; in the assay with CAKI-1 renal, more than 100 µM; in the assay on UACC-62 melanoma it was 69 µM; in the assay on MOLT-4 leukemia, more than 100 µM; in the assay on KM12 colon it was more than 100 µM; in the assay on OVCAR-4 ovarian, more than 100 µM.
With `Nc1nc(N)c(N=O)c(Nc2ccc(Br)cc2)n1`, the TGI in the assay with HOP-62 NSCLC is 63.9 µM; in the assay on CAKI-1 renal it was more than 100 µM; in the assay with UACC-62 melanoma, 19.4 µM; in the assay with KM12 colon, more than 100 µM; in the assay on OVCAR-4 ovarian, more than 100 µM.
As to `c1ccc2c(c1)c1c(n2CCOCCN2CCOCC2)CCCC1`, the TGI is more than 100 µM with MCF7 breast; more than 100 µM in the assay with HOP-62 NSCLC; more than 100 µM in the assay with CAKI-1 renal; more than 100 µM in the assay with DU-145 prostate; more than 100 µM in the assay on HS 578T breast; 69.8 µM in the assay on MOLT-4 leukemia. Also, the TGI is more than 100 µM with KM12 colon and 86.8 µM in the assay with OVCAR-4 ovarian.
In the case of `C=Cc1ccc(C)[n+](C[Si](C)(C)O[Si](C)(C)C[n+]2cc(C=C)ccc2C)c1`, the TGI in the assay with HOP-62 NSCLC, in the assay with CAKI-1 renal, in the assay with UACC-62 melanoma, with MOLT-4 leukemia, in the assay on KM12 colon and in the assay with OVCAR-4 ovarian was more than 100 µM throughout.
On to `CC(=O)O/N=C/c1c2ccccc2cc2ccccc12`, for which the TGI in the assay with MCF7 breast, with HOP-62 NSCLC, in the assay with CAKI-1 renal, in the assay with DU-145 prostate, in the assay with UACC-62 melanoma and in the assay on HS 578T breast was more than 100 µM in each case. In addition, the TGI in the assay with MOLT-4 leukemia and in the assay on KM12 colon was more than 100 µM each time.
As for `CC(=O)OCC1OC(n2cc(I)c(=O)[nH]c2=O)C(OC(C)=O)C(OC(C)=O)C1OC(C)=O` (configuration not stated), the TGI with HOP-62 NSCLC, in the assay on CAKI-1 renal, in the assay with UACC-62 melanoma, in the assay with MOLT-4 leukemia, in the assay with KM12 colon and in the assay on OVCAR-4 ovarian was more than 100 µM each time.
As to `O=C1Sc2ccccc2C(=O)N2CSCC12` (configuration not stated), the TGI with HOP-62 NSCLC, in the assay on UACC-62 melanoma, in the assay with MOLT-4 leukemia and with KM12 colon was more than 100 µM in each case.
Take `N#CC1=C(c2ccccc2)NNC(c2ccc(Cl)cc2)CC1=O` (configuration not stated): the TGI is 73.8 µM in the assay with HOP-62 NSCLC; more than 100 µM in the assay with CAKI-1 renal; more than 100 µM in the assay with MOLT-4 leukemia; more than 100 µM in the assay on KM12 colon; more than 100 µM in the assay with OVCAR-4 ovarian.
Turning to `CCC1=CC2CN3Cn4c(c(COCc5c6n(c7ccccc57)CN5CC7C=C(CC)C5C6(C(=O)OC)C7)c5ccccc54)C(C(=O)OC)(C2)C13`, the TGI with HOP-62 NSCLC, in the assay on CAKI-1 renal, in the assay on UACC-62 melanoma, with MOLT-4 leukemia, in the assay with KM12 colon and with OVCAR-4 ovarian was more than 100 µM each time.
For `O=C(Cc1nc2c3c(ccc2[nH]c1=O)C(=O)c1ccccc1C3=O)C(=O)Nc1ccccc1[N+](=O)[O-]`, the TGI came to 39.2 µM in the assay with HOP-62 NSCLC; 62.9 µM in the assay with CAKI-1 renal; 59 µM in the assay with UACC-62 melanoma; 23.2 µM in the assay with MOLT-4 leukemia; 43 µM with KM12 colon; 32.4 µM in the assay on OVCAR-4 ovarian.
Consider `O=c1[nH]cnc(NC2C=C(CO)C(O)C2O)c1[N+](=O)[O-]` (configuration not stated), for which the TGI in the assay with HOP-62 NSCLC, in the assay on CAKI-1 renal, in the assay with UACC-62 melanoma, in the assay with MOLT-4 leukemia, in the assay with KM12 colon and with OVCAR-4 ovarian was more than 100 µM throughout.
In the case of `COC(=O)c1cc2c(cc1CC1Cc3cc4c(cc3C1)CCC4)CCC2`, the TGI in the assay on MCF7 breast was 91.2 µM; with HOP-62 NSCLC it was more than 100 µM; in the assay with CAKI-1 renal it was more than 100 µM; with DU-145 prostate it was more than 100 µM; with HS 578T breast it was more than 100 µM; with MOLT-4 leukemia it was 36.9 µM. For the same compound, the TGI with KM12 colon and in the assay on OVCAR-4 ovarian was more than 100 µM throughout.
`CCOP(=O)(OCC)C(C(=O)OC)C(=O)C(=O)Nc1ccc(Cl)cc1Cl` (configuration not stated): the TGI in the assay with HOP-62 NSCLC, with CAKI-1 renal, with UACC-62 melanoma, in the assay with MOLT-4 leukemia, in the assay with KM12 colon and in the assay with OVCAR-4 ovarian was more than 100 µM in each case.
